Results taken from patent US6737383B1, “Herbicidal oxadiazolidines” (priority 1999, dated 2004).

Assays:
[1] = test system: wheat; experiment: Test B pre/postemergence wheat; type: in vivo, Triticum aestivum
How it was run: (§1)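 Response is a visual 0-to-10 score relative to untreated plants, where 0 means no effect and 10 means complete control, taken twelve to sixteen days after application. Treatments went onto soil at planting and onto foliage of 1- to 4-leaf plants, using a surfactant-containing non-phytotoxic solvent.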

[2] = test system: wild oat; experiment: Test B pre/postemergence wild oat; type: in vivo, Avena fatua
How it was run: as §1

[3] = test system: surinam grass; experiment: Test B pre/postemergence surinam grass; type: in vivo, Brachiaria decumbens
How it was run: as §1

[4] = test system: purple nutsedge; experiment: Test B pre/postemergence purple nutsedge; type: in vivo, Cyperus rotundus
How it was run: as §1

[5] = test system: corn; experiment: Test B pre/postemergence corn; type: in vivo, Zea mays
How it was run: as §1

[6] = test system: giant foxtail; experiment: Test B pre/postemergence giant foxtail; type: in vivo, Setaria faberii
How it was run: as §1

[7] = test system: duck salad; experiment: Test B flood test duck salad; type: in vivo, Heteranthera limosa
How it was run: (§2)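 Read-out is a visual response score from 0 (no effect) to 10 (complete control), assigned by comparison with untreated controls. Treatment was applied at the 2-leaf stage, and plants stayed in the greenhouse for twelve to sixteen days before scoring.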

[8] = test system: smallflower flatsedge; experiment: Test B flood test smallflower flatsedge; type: in vivo, Cyperus difformis
How it was run: as §2

[9] = test system: bamyardgrass; experiment: Test B flood test barnyardgrass; type: in vivo, Echinochloa crus-galli
How it was run: as §2

[10] = test system: rape; experiment: Test B pre/postemergence rape; type: in vivo, Brassica napus
How it was run: as §1

[11] = test system: rice; experiment: Test B flood test rice; type: in vivo, Oryza sativa
How it was run: as §2

[12] = test system: crabgrass; experiment: Test B pre/postemergence crabgrass; type: in vivo, Digitaria sanguinalis
How it was run: as §1

[13] = test system: sugar beet; experiment: Test B pre/postemergence sugar beet; type: in vivo, Beta vulgaris
How it was run: as §1

[14] = test system: blackgrass; experiment: Test B pre/postemergence blackgrass; type: in vivo, Alopecurus myosuroides
How it was run: as §1

[15] = test system: velvetleaf; experiment: Test B pre/postemergence velvetleaf; type: in vivo, Abutilon theophrasti
How it was run: as §1

[16] = Postemergence, Rate 62 g/ha, scale 0 to 10, 0 is no effect, 10 is complete control
[17] = Postemergence, Rate 125 g/ha, scale of 0 to 10 where 0 is no effect and 10 is complete control
[18] = Postemergence, Rate 250 g/ha, scale of 0 to 10, 0 is no effect, 10 is complete control
[19] = Preemergence, Rate 62 g/ha, scale of 0 to 10 where 0 is no effect and 10 is complete control
[20] = Preemergence, Rate 125 g/ha, scale of 0 to 10 where 0 is no effect and 10 is complete control
[21] = Preemergence, Rate 250 g/ha, scale 0 to 10 (0 no effect, 10 complete control)
[22] = Preemergence, Rate 500 g/ha, scale of 0 to 10 where 0 is no effect and 10 is complete control
[23] = Postemergence, Rate 500 g/ha, scale of 0 to 10 where 0 is no effect and 10 is complete control
[24] = Rate 62 g/ha, flood test species, Pre-emergence, visual evaluation after twelve to sixteen days
[25] = Rate 125 g/ha, under heading Pre-emergence, flood test species, visual evaluation after twelve to sixteen days
[26] = Rate 250 g/ha, Pre-emergence (flood test species), scale 0 to 10, 0 is no effect, 10 is complete control
[27] = Rate 500 g/ha, Pre-emergence section of Table B, 0 to 10 scale (0 no effect, 10 complete control)

CC(C)N(C(=O)n1oc(=O)n(CC(=O)C2CCC2)c1=O)c1ccc(F)cc1F [Compound 642]
Plant response rating, Wheat [1, 16]: 0
Wheat plant response rating [1, 17]: 0
Wheat plant response rating [1, 18]: 0
Wheat plant response rating [1, 19]: 0
Wheat plant response rating [1, 20]: 0
Plant response rating, Wheat [1, 21]: 0
Plant response rating, Wheat [1, 22]: 0
Plant response rating, Wild oats [2, 16]: 1
Wild oats plant response rating [2, 17]: 1
Wild oats plant response rating [2, 18]: 1
Wild oats plant response rating [2, 19]: 0
Wild oats plant response rating [2, 20]: 0
Plant response rating, Wild oats [2, 21]: 2
Plant response rating, Wild oats [2, 22]: 4
Plant response rating, B. signalgrass [3, 16]: 0
Plant response rating, B. signalgrass [3, 17]: 0
B. signalgrass plant response rating [3, 18]: 0
Plant response rating, B. signalgrass [3, 23]: 0
B. signalgrass plant response rating [3, 19]: 0
B. signalgrass plant response rating [3, 20]: 2
Plant response rating, B. signalgrass [3, 21]: 5
Plant response rating, B. signalgrass [3, 22]: 8
Plant response rating, Nutsedge [4, 16]: 0
Nutsedge plant response rating [4, 17]: 0
Nutsedge plant response rating [4, 18]: 0
Plant response rating, Nutsedge [4, 23]: 0
Nutsedge plant response rating [4, 19]: 0
Nutsedge plant response rating [4, 20]: 0
Plant response rating, Nutsedge [4, 21]: 0
Plant response rating, Nutsedge [4, 22]: 0
Plant response rating, Corn [5, 16]: 0
Corn plant response rating [5, 17]: 0
Corn plant response rating [5, 18]: 0
Plant response rating, Corn [5, 23]: 0
Corn plant response rating [5, 19]: 0
Corn plant response rating [5, 20]: 0
Plant response rating, Corn [5, 21]: 0
Plant response rating, Corn [5, 22]: 0
Plant response rating, Giant foxtail [6, 16]: 0
Giant foxtail plant response rating [6, 17]: 0
Giant foxtail plant response rating [6, 18]: 4
Plant response rating, Giant foxtail [6, 23]: 7
Giant foxtail plant response rating [6, 19]: 8
Giant foxtail plant response rating [6, 20]: 10
Plant response rating, Giant foxtail [6, 21]: 10
Plant response rating, Giant foxtail [6, 22]: 10
Plant response rating, Ducksalad (0 to 10 scale, 0 is no effect, 10 is complete control) [7, 24]: 0
Ducksalad plant response rating (0 to 10 scale, 0 is no effect, 10 is complete control) [7, 25]: 0
Ducksalad plant response rating [7, 26]: 0
Ducksalad plant response rating [7, 27]: 0
Plant response rating, S. Flatsedge (0 to 10 scale, 0 is no effect, 10 is complete control) [8, 24]: 0
S. Flatsedge plant response rating (0 to 10 scale, 0 is no effect, 10 is complete control) [8, 25]: 0
S. Flatsedge plant response rating [8, 26]: 0
S. Flatsedge plant response rating [8, 27]: 0
Plant response rating, Barnyardgrass (0 to 10 scale, 0 is no effect, 10 is complete control) [9, 24]: 0
Barnyardgrass plant response rating (0 to 10 scale, 0 is no effect, 10 is complete control) [9, 25]: 0
Barnyardgrass plant response rating [9, 26]: 0
Barnyardgrass plant response rating [9, 27]: 0
Plant response rating, Rape [10, 16]: 0
Rape plant response rating [10, 17]: 0
Rape plant response rating [10, 18]: 0
Plant response rating, Rape [10, 23]: 0
Rape plant response rating [10, 19]: 0
Rape plant response rating [10, 20]: 2
Plant response rating, Rape [10, 21]: 4
Plant response rating, Rape [10, 22]: 9
Plant response rating, Rice (0 to 10 scale, 0 is no effect, 10 is complete control) [11, 24]: 0
Rice plant response rating (0 to 10 scale, 0 is no effect, 10 is complete control) [11, 25]: 0
Rice plant response rating [11, 26]: 0
Rice plant response rating [11, 27]: 0
Plant response rating, Crabgrass [12, 16]: 0
Crabgrass plant response rating [12, 17]: 0
Crabgrass plant response rating [12, 18]: 0
Plant response rating, Crabgrass [12, 23]: 5
Crabgrass plant response rating [12, 19]: 6
Crabgrass plant response rating [12, 20]: 8
Plant response rating, Crabgrass [12, 21]: 10
Plant response rating, Crabgrass [12, 22]: 10
Plant response rating, Sugarbeets [13, 16]: 0
Sugarbeets plant response rating [13, 17]: 0
Sugarbeets plant response rating [13, 18]: 0
Sugarbeets plant response rating [13, 19]: 0
Sugarbeets plant response rating [13, 20]: 0
Plant response rating, Sugarbeets [13, 21]: 0
Plant response rating, Sugarbeets [13, 22]: 4
Plant response rating, Blackgrass [14, 16]: 0
Blackgrass plant response rating [14, 17]: 0
Blackgrass plant response rating [14, 18]: 6
Plant response rating, Blackgrass [14, 23]: 6
Blackgrass plant response rating [14, 19]: 0
Blackgrass plant response rating [14, 20]: 0
Plant response rating, Blackgrass [14, 21]: 4
Plant response rating, Blackgrass [14, 22]: 7
Plant response rating, Velvetleaf [15, 16]: 0
Velvetleaf plant response rating [15, 17]: 0
Velvetleaf plant response rating [15, 18]: 3
Velvetleaf plant response rating [15, 19]: 0
Velvetleaf plant response rating [15, 20]: 0
Plant response rating, Velvetleaf [15, 21]: 0
Plant response rating, Velvetleaf [15, 22]: 3
